Assay results: patent US10947252B2, “Inhibitors of KEAP1-Nrf2 protein-protein interaction” (Janssen Pharmaceutica NV, priority 2018, dated 2021)

What was measured:
[1] = target: Kelch domain of human KEAP1 (321-624 aa) (Homo sapiens (Human), UniProt Q14145); assay: KEAP1 KELCH ThermoFluor binding assay; conditions: KEAP Kelch […], 1,8-ANS, pH 7.0, average of results obtained, read-out: Tf Kd;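 further: Ligand-induced melting temperature shift of E. coli-expressed KEAP1 Kelch protein, Kd estimated from concentration-response curves of ΔTm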
[2] = tested on: Glo-Response ARE-luc2P HEK293 cell line; assay: ARE luciferase reporter cell-based assay; conditions: Homo sapiens, HEK293, 24 h, average of results obtained;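 further: luciferase signal tracks Nrf2 activation of the ARE once compounds disrupt KEAP1-Nrf2 binding, read with One-Glo reagent, DMSO serving as low control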

Sequence of Kelch domain of human KEAP1 (321-624 aa) (Q14145 321-624): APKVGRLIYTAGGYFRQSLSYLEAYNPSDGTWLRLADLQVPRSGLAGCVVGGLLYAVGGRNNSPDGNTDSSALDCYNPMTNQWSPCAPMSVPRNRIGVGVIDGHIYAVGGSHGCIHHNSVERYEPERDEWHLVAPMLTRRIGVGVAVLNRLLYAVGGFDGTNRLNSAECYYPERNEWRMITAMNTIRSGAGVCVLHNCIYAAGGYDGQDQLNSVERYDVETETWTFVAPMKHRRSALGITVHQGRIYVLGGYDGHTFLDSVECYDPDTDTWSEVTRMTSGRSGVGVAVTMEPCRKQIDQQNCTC

Row | Structure (SMILES) | Kd [1] [µM] | EC50 [2] [µM]
1 | Cc1ccc([C@H](CC(=O)O)c2ccc3c(nnn3C3CC3)c2C)cc1CN1C[C@@]2(C)CCCN2c2ncccc2S1(=O)=O (single isomer, unassigned) [Example 222, (*S)-3-(1-Cyclopropyl-4-methyl-1H-benzo[d][1,2,3]triazol-5-yl)-3-(4-methyl-3-(((*R)-7a-methyl-5,5-dioxido-7a,8,9,10-tetrahydropyrido[2,3-f]pyrrolo[2,1-d][1,2,5]thiadiazepin-6(7H)-yl)methyl)phenyl)propanoic Acid] | 0.014 | 0.35
2 | Cc1ccc([C@@H](CC(=O)O)c2ccc3c(nnn3C3CC3)c2C)cc1CN1C[C@@]2(C)CCCN2c2ncccc2S1(=O)=O (single isomer, unassigned) [Example 223, (*R)-3-(1-Cyclopropyl-4-methyl-1H-benzo[d][1,2,3]triazol-5-yl)-3-(4-methyl-3-(((*R)-7a-methyl-5,5-dioxido-7a,8,9,10-tetrahydropyrido[2,3-f]pyrrolo[2,1-d][1,2,5]thiadiazepin-6(7H)-yl)methyl)phenyl)propanoic Acid] | 0.19 | 5.46
3 | Cc1ccc([C@@H](CC(=O)O)c2ccc3c(nnn3C3CC3)c2C)cc1CN1CC2(CC2)N(C)c2ncccc2S1(=O)=O (single isomer, unassigned) [Example 226, (*R)-3-(1-Cyclopropyl-4-methyl-1H-benzo[d][1,2,3]triazol-5-yl)-3-(4-methyl-3-((5′-methyl-1′,1′-dioxido-5′H-spiro[cyclopropane-1,4′-pyrido[2,3-f][1,2,5]thiadiazepin]-2′(3′H)-yl)methyl)phenyl)propanoic Acid] | 0.006 | 0.16
4 | Cc1cnc2c(c1)S(=O)(=O)N(Cc1cc([C@H](c3ccc4c(nnn4C4CC4)c3C)C(C)(C)C(=O)O)cnc1C)CC1(CCOCC1)O2 (single isomer, unassigned) [Example 228, (*S)-3-(1-Cyclopropyl-4-methyl-1H-benzo[d][1,2,3]triazol-5-yl)-2,2-dimethyl-3-(6-methyl-5-((8′-methyl-1′,1′-dioxido-2,3,5,6-tetrahydrospiro[pyran-4,4′-pyrido[2,3-b][1,4,5]oxathiazepin]-2′(3′H)-yl)methyl)pyridin-3-yl)propanoic Acid] | < 0.001 | 0.01
5 | Cc1cnc2c(c1)S(=O)(=O)N(Cc1cc([C@@H](c3ccc4c(nnn4C4CC4)c3C)C(C)(C)C(=O)O)cnc1C)CC1(CCOCC1)O2 (single isomer, unassigned) [Example 229, (*R)-3-(1-Cyclopropyl-4-methyl-1H-benzo[d][1,2,3]triazol-5-yl)-2,2-dimethyl-3-(6-methyl-5-((8′-methyl-1′,1′-dioxido-2,3,5,6-tetrahydrospiro[pyran-4,4′-pyrido[2,3-b][1,4,5]oxathiazepin]-2′(3′H)-yl)methyl)pyridin-3-yl)propanoic Acid] | 17 | 2.43
6 | Cc1ccc([C@H](CC(=O)O)c2ccn3c(C4CC4)nnc3c2C)cc1CN1CC2(CC2)Oc2ncc(F)cc2S1(=O)=O (single isomer, unassigned) [Example 230, (*S)-3-(3-Cyclopropyl-8-methyl-[1,2,4]triazolo[4,3-a]pyridin-7-yl)-3-(3-((8′-fluoro-1′,1′-dioxidospiro[cyclopropane-1,4′-pyrido[2,3-b][1,4,5]oxathiazepin]-2′(3′H)-yl)methyl)-4-methylphenyl)propanoic Acid] | < 0.001 | 0.48
7 | Cc1ccc([C@H](CC(=O)O)c2ccc3c(nnn3CC3CC3)c2C)cc1CN1C[C@@H]2CCCCN2c2ncccc2S1(=O)=O (single isomer, unassigned) [Example 232, (*S)-3-(1-(Cyclopropylmethyl)-4-methyl-1H-benzo[d][1,2,3]triazol-5-yl)-3-(3-(((*S)-5,5-dioxido-7,7a,8,9,10,11-hexahydro-6H-dipyrido[2,1-d:2′,3′-f][1,2,5]thiadiazepin-6-yl)methyl)-4-methylphenyl)propanoic Acid] | < 0.001 | 0.0026
8 | Cc1ccc([C@@H](CC(=O)O)c2ccc3c(nnn3CC3CC3)c2C)cc1CN1C[C@@H]2CCCCN2c2ncccc2S1(=O)=O (single isomer, unassigned) [Example 233, (*R)-3-(1-(Cyclopropylmethyl)-4-methyl-1H-benzo[d][1,2,3]triazol-5-yl)-3-(3-(((*S)-5,5-dioxido-7,7a,8,9,10,11-hexahydro-6H-dipyrido[2,1-d:2′,3′-f][1,2,5]thiadiazepin-6-yl)methyl)-4-methylphenyl)propanoic Acid] | < 0.001 | 0.08
9 | Cc1ccc([C@@H](CC(=O)O)c2ccc3c(nnn3CC3CC3)c2C)cc1CN1C[C@H]2CCCCN2c2ncccc2S1(=O)=O (single isomer, unassigned) [Example 235, (*R)-3-(1-(Cyclopropylmethyl)-4-methyl-1H-benzo[d][1,2,3]triazol-5-yl)-3-(3-(((*R)-5,5-dioxido-7,7a,8,9,10,11-hexahydro-6H-dipyrido[2,1-d:2′,3′-f][1,2,5]thiadiazepin-6-yl)methyl)-4-methylphenyl)propanoic Acid] | < 0.001 | 0.0019
10 | Cc1ccc([C@H](CC(=O)O)c2ccc3c(nnn3CC3CC3)c2C)cc1CN1C[C@H]2CCCCN2c2ncccc2S1(=O)=O (single isomer, unassigned) [Example 236, (*S)-3-(1-(Cyclopropylmethyl)-4-methyl-1H-benzo[d][1,2,3]triazol-5-yl)-3-(3-(((*R)-5,5-dioxido-7,7a,8,9,10,11-hexahydro-6H-dipyrido[2,1-d:2′,3′-f][1,2,5]thiadiazepin-6-yl)methyl)-4-methylphenyl)propanoic Acid] | < 0.001 | 0.0068
11 | CCn1nnc2c(C)c([C@H](CC(=O)O)c3ccc(C)c(CN4CC5(COC5)Oc5ccccc5S4(=O)=O)n3)ccc21 (single isomer, unassigned) [Example 238, (*S)-3-(6-((1,1-Dioxidospiro[benzo[b][1,4,5]oxathiazepine-4,3′-oxetan]-2(3H)-yl)methyl)-5-methylpyridin-2-yl)-3-(1-ethyl-4-methyl-1H-benzo[d][1,2,3]triazol-5-yl)propanoic Acid] | < 0.001 | 0.0097
12 | CCn1nnc2c(C)c([C@@H](CC(=O)O)c3ccc(C)c(CN4CC5(COC5)Oc5ccccc5S4(=O)=O)n3)ccc21 (single isomer, unassigned) [Example 239, (*R)-3-(6-((1,1-Dioxidospiro[benzo[b][1,4,5]oxathiazepine-4,3′-oxetan]-2(3H)-yl)methyl)-5-methylpyridin-2-yl)-3-(1-ethyl-4-methyl-1H-benzo[d][1,2,3]triazol-5-yl)propanoic Acid] | 0.0019 | 0.044
13 | CCn1nnc2c(C)c([C@H](CC(=O)O)c3ccc(C)c(CN4CC5(COC5)Oc5ncccc5S4(=O)=O)n3)ccc21 (single isomer, unassigned) [Example 241, (*S)-3-(6-((1′,1′-Dioxidospiro[oxetane-3,4′-pyrido[2,3-b][1,4,5]oxathiazepin]-2′(3′H)-yl)methyl)-5-methylpyridin-2-yl)-3-(1-ethyl-4-methyl-1H-benzo[d][1,2,3]triazol-5-yl)propanoic Acid] | < 0.001 | 0.028
14 | CCn1nnc2c(C)c([C@@H](CC(=O)O)c3ccc(C)c(CN4CC5(COC5)Oc5ncccc5S4(=O)=O)n3)ccc21 (single isomer, unassigned) [Example 242, (*R)-3-(6-((1′,1′-Dioxidospiro[oxetane-3,4′-pyrido[2,3-b][1,4,5]oxathiazepin]-2′(3′H)-yl)methyl)-5-methylpyridin-2-yl)-3-(1-ethyl-4-methyl-1H-benzo[d][1,2,3]triazol-5-yl)propanoic Acid] | 0.0018 | 0.11
15 | CCn1nnc2c(C)c([C@H](CC(=O)O)c3ccc(C)c(CN4CC5(CC5)Oc5ncccc5S4(=O)=O)n3)ccc21 (single isomer, unassigned) [Example 244, (*S)-3-(6-((1′,1′-Dioxidospiro[cyclopropane-1,4′-pyrido[2,3-b][1,4,5]oxathiazepin]-2′(3′H)-yl)methyl)-5-methylpyridin-2-yl)-3-(1-ethyl-4-methyl-1H-benzo[d][1,2,3]triazol-5-yl)propanoic Acid] | < 0.001 | 0.035
16 | CCn1nnc2c(C)c([C@@H](CC(=O)O)c3ccc(C)c(CN4CC5(CC5)Oc5ncccc5S4(=O)=O)n3)ccc21 (single isomer, unassigned) [Example 245, (*R)-3-(6-((1′,1′-Dioxidospiro[cyclopropane-1,4′-pyrido[2,3-b][1,4,5]oxathiazepin]-2′(3′H)-yl)methyl)-5-methylpyridin-2-yl)-3-(1-ethyl-4-methyl-1H-benzo[d][1,2,3]triazol-5-yl)propanoic Acid] | < 0.001 | 0.14
17 | Cc1ccc([C@@H](CC(=O)O)c2cc(OC(F)F)c3c(c2)nnn3C)cc1CN1C[C@H]2CCCN2c2ncccc2S1(=O)=O (single isomer, unassigned) [Example 248, (*R)-3-(7-(Difluoromethoxy)-1-methyl-1H-benzo[d][1,2,3]triazol-5-yl)-3-(3-(((R)-5,5-dioxido-7a,8,9,10-tetrahydropyrido[2,3-f]pyrrolo[2,1-d][1,2,5]thiadiazepin-6(7H)-yl)methyl)-4-methylphenyl)propanoic Acid] | < 0.001 | 0.0486
18 | CC[C@@H]1CN(Cc2cc([C@H](CC(=O)O)c3cc(OC(F)F)c4c(c3)nnn4C)ccc2C)S(=O)(=O)c2cccnc2O1 (single isomer, unassigned) [Example 250, (*S)-3-(7-(Difluoromethoxy)-1-methyl-1H-benzo[d][1,2,3]triazol-5-yl)-3-(3-(((R)-4-ethyl-1,1-dioxido-3,4-dihydro-2H-pyrido[2,3-b][1,4,5]oxathiazepin-2-yl)methyl)-4-methylphenyl)propanoic Acid] | < 0.001 | 0.0328
